Experimental data as given in PubChem BioAssay (NCI).
Several values for one entry are separate records, joined by “and”; a condition that tells them apart may be missing. Identical values can stand only once.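 Growth conditions: 96-well plates. Treatment: test compound, 48 hours, 5 concentrations. Analysis: linear interpolation between bracketing concentrations; unreached endpoints set to highest concentration. GI50: concentration for 50% inhibition of growth. TGI is the concentration that stops growth completely.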

How the values were obtained:
Test in all cases: NCI anticancer screen, dose series, 48 h
CAKI-1 renal = system: CAKI-1 renal
A498 renal = system: A498 renal
K-562 leukemia = system: K-562 leukemia
KM12 colon = system: KM12 colon
RXF 393 renal = system: RXF 393 renal
SF-295 CNS = system: SF-295 CNS
OVCAR-5 ovarian = system: OVCAR-5 ovarian
UACC-257 melanoma = system: UACC-257 melanoma
NCI-H460 lung = system: NCI-H460 lung

Compound	TGI (CAKI-1 renal) [µM]	TGI (A498 renal)	TGI (K-562 leukemia) [µM]	TGI (KM12 colon) [µM]	TGI (RXF 393 renal) [µM]	TGI (SF-295 CNS)	TGI (OVCAR-5 ovarian)	TGI (UACC-257 melanoma) [µM]	TGI (NCI-H460 lung)	GI50 (CAKI-1 renal) [µM]	GI50 (A498 renal) [µM]	GI50 (K-562 leukemia) [µM]	GI50 (KM12 colon) [µM]	GI50 (RXF 393 renal) [µM]	GI50 (SF-295 CNS) [µM]	GI50 (OVCAR-5 ovarian) [µM]	GI50 (UACC-257 melanoma) [µM]	GI50 (NCI-H460 lung) [µM]
CCc1ccc(Nc2cc(=O)[nH]c(=S)n2C)cc1	> 100	> 100 µM	> 100	> 100	> 100	> 100 µM	> 100 µM	> 100	> 100 µM									
NC(=S)NNC(=O)CCC(=O)Nc1ccc(Cl)cc1Cl	> 100	> 100 µM	> 100	> 100	> 100	> 100 µM	> 100 µM	> 100	> 100 µM									
CCC[CH2][Ge]([CH2]CCC)([CH2]CCC)[O]C(=O)C(OC)c1ccccc1 (configuration not stated)	> 100	> 100 µM	> 100	> 100	27.8	> 100 µM	> 78.3 µM	> 100	> 100 µM	70.1	46.8	2.07	26.4	6.9	18.3	31.5	16.7	22.1
CCC[CH2][Sn]([CH2]CCC)([O]C(=O)c1cc(OC)c(OC)cc1OC)[O]C(=O)c1cc(OC)c(OC)cc1OC	1.63	3.21 µM	2.97	4.07	1.47	5.88 µM	4.33 µM	3.31	12.1 µM	0.419	1.48	0.324	1.75	0.327	2.28	2.27	1.29	3.08
CCOC(=O)N1N=NC2C3OC(C[C@@]3(C#N)OC(C)=O)[C@H]21 (some centres not stated)	> 100		> 100	> 100	> 100	> 100 µM	> 100 µM	> 100	> 100 µM									
CCCCCCCCCC1C(C)c2c([nH]c3ccccc23)C2C(=O)N(c3ccccc3)C(=O)C21 (configuration not stated)	28.8	33.8 µM	15.9	16.2	5.55	28.9 µM	31.5 µM	29.3	13.7 µM									
COc1cc2ccnc(-c3c4ccccc4c(N)c4c(OC)c(OC)ccc34)c2cc1OC	8.72	8.89 µM	7.98	11.3	6.87	13.9 µM		4.37	6.53 µM									
Nc1ncnc2c(C3OC(CO)C(O)C3O)scc12 (configuration not stated)		0.324 µM and 2.03 µM	0.03	0.026	1.39	2.45 µM and 3.66 µM	0.787 µM and 0.139 µM		0.554 µM and 1.12 µM		0.0518				0.591		1.11	
CC1=CC2=C(C(N)=O)C(=O)OC2(C)C(c2ccccc2)C1 (configuration not stated)		> 100 µM	> 100	> 100		> 100 µM	> 100 µM	> 100	> 100 µM									
CC(=O)OC1C/C(C)=C/CCC(C)/C=C/C2(C)CCC(C(C)(C)O)C12 (configuration not stated)	> 100	> 100 µM	> 100	> 100	53.3	> 100 µM	> 100 µM	> 100	> 100 µM									
COc1cc(/C=C/c2ccc(OC(C)=O)cc2)cc(OC)c1OC	> 100	71.8 µM	> 100	> 100	39.2	66.3 µM	68.6 µM	> 100	91.6 µM									
CCC[CH2][Ge]([CH2]CCC)([CH2]CCC)[O]C(=O)C(O)c1ccccc1 (configuration not stated)	24.1	26.8 µM	19.9	17.4	1.06	17.6 µM	21.7 µM	15.5	34.9 µM	5.9	11.7	0.443	2.96		1.01	6.27	1.08	3.03
Cc1ccccc1-c1c(N)nc(N)nc1C(=O)Nc1nccs1	> 100	> 100 µM	> 100	> 100	> 100	> 100 µM	> 100 µM	> 100	> 100 µM									
CC[C@H](C)[C@H](NC(=O)Nc1ccccc1)C(=O)N(C)[C@H](C[C@@H](OC(C)=O)c1nc(C(=O)N[C@@H](Cc2ccccc2)C[C@H](C)C(=O)OC)cs1)C(C)C	> 100			> 100	7.25	> 100 µM	> 100 µM	> 100	> 100 µM	9.01			2.09	1.95	2.76	11.9	> 100	2.83
CCC1(C(=O)OC)CCc2c(OC)ccc(OC)c2C1=O (configuration not stated)	> 100	> 100 µM	> 100	> 100		> 100 µM	> 100 µM	> 100	> 100 µM									
